Source: patent US12678446B2 (PFIZER INC., priority 2020, dated 2026)

Legend:
[1] = tested on: RSV (RSV A2 ECACC, 0709161v); assay: RSV plaque reduction assay; assay type: cell-based, respiratory syncytial virus; conditions: human respiratory syncytial virus, HepG2, read-out: RSV A2 Plaque EC50, RSV A2 in Hep-G2 cells; mean of at least two experiments unless noted (n = 1)
Method: Compounds w ere subjected to RSV plaque reduction assays according to the following protocol.
Hep-G2 cells (ECACC, 85011430) were passaged in flasks and seeded in 24-well plates in DMEM containing antibiotics and supplemented with 10% FBS. During inoculation and subsequent incubation, cells were cultured in DMEM containing 2% FBS. 100 plaque forming unit/well of RSV (RSV A2 ECACC, 0709161v) was mixed with eight serial dilutions of compound. Subsequently, 100 μL of the virus/compound mixtures was added to confluent Hep-G2 cell monolayers. The cells and virus/compound mixtures were incubated at 37° C. in a humidified 5% CO2 incubator for 2 h prior to removal of the inoculum and addition of 1 mL of overlay (DMEM containing 2% FBS and 0.8% CMC) containing compound dilutions. The cells and were incubated at 37° C. in a humidified 5% CO2 incubator for 2 days.
Cells were washed with PBS before adding 75/25% v/v EtOH MeOH, for 3 min. Fixative was removed and plates were washed with PBS. A pre-titrated amount of the primary antibody was added in 200 μL PBS/2% milk powder, and plates incubated for 90 min at 37° C. The plates were washed 3 times with PBS/0.05% Tween20 before addition of rabbit anti-goat horse radish peroxidase in 200 μL PBS/2% milk powder, and incubated for 1 h at 37° C. Following three wash steps with PBS/0.05% Tween20, 200 μL ready-to-use TrueBlue was added and plates were incubated at rt for 10-15 min before washing with water. After removal of water, plates were air-dried in the dark.
Plates were scanned and analysed using the Immunospot S6 Macro analyser, which is equipped with BioSpot analysis software for counting immunostained plaques (virospots). Plaque counts were used to calculate % infection relative to the mean of the plaque count in the virus control wells for RSV. […] Unless otherwise noted, plaque EC50 and cell toxicity CC50 values are a mean of at least two experiments and figures are rounded to whole units.

cell toxicity CC50 = assay type: cell-based; conditions: human; Hep-G2 cells; mean of at least two experiments; read-out: Cell Cytotoxicity CC50

Row | Compound | EC50 [1] [nM] | CC50 (cell toxicity CC50) [nM]
1 | CCc1ccc(-c2nn3c(c2C(=O)N[C@H]2N=C(c4ccccc4)c4ccccc4NC2=O)O[C@H](C)CC3)c(F)c1 [Example 54] | 15 | > 25000
2 | O=C(N[C@H]1N=C(c2ccccc2)c2cccc(F)c2NC1=O)c1c(-c2ccccc2F)nn2c1OCC(CO)C2 (single isomer, unassigned) [Example 110-1, (6R*)-N-[(3S)-9-fluoro-2-oxo-5-phenyl-1,3-dihydro-1,4-benzodiazepin-3-yl]-2-(2-fluorophenyl)-6-(hydroxymethyl)-6,7-dihydro-5H-pyrazolo[5,1-b][1,3]oxazine-3-carboxamide] | 42 | > 25000
3 | O=C(N[C@H]1N=C(c2ccccc2)c2cccc(F)c2NC1=O)c1c(-c2ccccc2F)nn2c1OCC(O)C2 (stereo partly drawn) [Example 160, 2-(2-Fluorophenyl)-6-hydroxy-N-[(3S)-9-fluoro-2-oxo-5-phenyl-1,3-dihydro-1,4-benzodiazepin-3-yl]-6,7-dihydro-5H-pyrazolo[5,1-b][1,3]oxazine-3-carboxamide] | 148 | > 25000
4 | CCc1ccc(-c2nn3c(c2C(=O)N[C@H]2N=C(c4ccccc4)c4cccc(F)c4NC2=O)OCC2(CC2)C3)cn1 [Example 181, 2-(6-Ethylpyridin-3-yl)-N-[(3S)-9-fluoro-2-oxo-5-phenyl-1,3-dihydro-1,4-benzodiazepin-3-yl]spiro[5,7-dihydropyrazolo[5,1-b][1,3]oxazine-6,1′-cyclopropane]-3-carboxamide] | 42 | > 25000
5 | C[C@@H]1CCn2nc(-c3ccc(S(C)(=O)=O)cc3F)c(C(=O)N[C@H]3N=C(c4ccccc4)c4cccc(F)c4NC3=O)c2O1 [Example 137, (5R)-2-(2-Fluoro-4-methylsulfonylphenyl)-N-[(3S)-9-fluoro-2-oxo-5-penyl-1,3-dihydro-1,4-benzodiazepin-3-yl]-5-methyl-6,7-dihydro-5H-pyrazolo[5,1-b][1,3]oxazine-3-carboxamide] | 15 | > 25000
6 | O=C(N[C@H]1N=C(c2ccccc2)c2cccc(F)c2NC1=O)c1c(-c2c(F)cccc2F)nn2c1OC(CO)CC2 (single isomer, unassigned) [Example 189-1, (5R*)-2-(2,6-Difluorophenyl)-N-[(3S)-9-fluoro-2-oxo-5-phenyl-1,3-dihydro-1,4-benzodiazepin-3-yl]-5-(hydroxymethyl)-6,7-dihydro-5H-pyrazolo[5,1-b][1,3]oxazine-3-carboxamide] | 41 | > 25000
7 | Cn1ncc2c(-c3nn4c(c3C(=O)N[C@H]3N=C(c5ccccc5)c5ccccc5NC3=O)OCCC4)cccc21 [Example 149, 2-(1-Methylindazol-4-yl)-N-[(3S)-2-oxo-5-phenyl-1,3-dihydro-1,4-benzodiazepin-3-yl]-6,7-dihydro-5H-pyrazolo[5,1-b][1,3]oxazine-3-carboxamide] | 194 | > 25000
8 | CCN(CC)CC1COc2c(C(=O)N[C@H]3N=C(c4ccccc4)c4cccc(F)c4NC3=O)c(-c3ccccc3F)nn2C1 (stereo partly drawn) [Example 164, 6-(Diethylaminomethyl)-N-[(3S)-9-fluoro-2-oxo-5-phenyl-1,3-dihydro-1,4-benzodiazepin-3-yl]-2-(2-fluorophenyl)-6,7-dihydro-5H-pyrazolo[5,1-b][1,3]oxazine-3-carboxamide] | 87 | > 25000
9 | CCNc1ccc(-c2nn3c(c2C(=O)N[C@H]2N=C(c4ccccc4)c4cccc(F)c4NC2=O)OCCC3)cn1 [Example 20, 2-[6-(Ethylamino)pyridin-3-yl]-N-[(3S)-9-fluoro-2-oxo-5-phenyl-1,3-dihydro-1,4-benzodiazepin-3-yl]-6,7-dihydro-5H-pyrazolo[5,1-b][1,3]oxazine-3-carboxamide] | 42 | > 25000
10 | CSc1ccc(-c2nn3c(c2C(=O)N[C@H]2N=C(c4ccccc4)c4cccc(F)c4NC2=O)OCCC3)c(F)c1 [Example 193, 2-(2-Fluoro-4-methylsulfanylphenyl)-N-[(3S)-9-fluoro-2-oxo-5-phenyl-1,3-dihydro-1,4-benzodiazepin-3-yl]-6,7-dihydro-5H-pyrazolo[5,1-b][1,3]oxazine-3-carboxamide] | 19 | > 25000
11 | C[C@@H]1CCn2nc(-c3ccccc3F)c(C(=O)N[C@H]3N=C(c4ccccc4)c4ccccc4NC3=O)c2O1 [Example 24, (5R)-2-(2-Fluorophenyl)-5-methyl-N-[(3S)-2-oxo-5-phenyl-1,3-dihydro-1,4-benzodiazepin-3-yl]-6,7-dihydro-5H-pyrazolo[5,1-b][1,3]oxazine-3-carboxamide] | 77 | > 25000
12 | COCCn1cc(-c2nn3c(c2C(=O)N[C@H]2N=C(c4ccccc4)c4cccc(F)c4NC2=O)O[C@H](C)CC3)cn1 [Example 119, (5R)-N-[(3S)-9-fluoro-2-oxo-5-phenyl-1,3-dihydro-1,4-benzodiazepin-3-yl]-2-[1-(2-methoxyethyl)pyrazol-4-yl]-5-methyl-6,7-dihydro-5H-pyrazolo[5,1-b][1,3]oxazine-3-carboxamide] | 69 | > 25000
13 | O=C(N[C@H]1N=C(c2ccccc2)c2cccc(F)c2NC1=O)c1c(-c2ccccc2F)nn2c1S(=O)(=O)CCC2 [Example 33, 2-(2-Fluorophenyl)-N-[(3S)-9-fluoro-2-oxo-5-phenyl-2,3-dihydro-1H-1,4-benzodiazepin-3-yl]-4,4-dioxo-5H,6H,7H-4λ^6-pyrazolo[3,2-b][1,3]thiazine-3-carboxamide] | 474 | > 25000
14 | CC(C)n1cc(-c2nn3c(c2C(=O)N[C@H]2N=C(c4ccccc4)c4cccc(F)c4NC2=O)OCCC3)cn1 [Example 148, N-[(3S)-9-fluoro-2-oxo-5-phenyl-1,3-dihydro-1,4-benzodiazepin-3-yl]-2-(1-propan-2-ylpyrazol-4-yl)-6,7-dihydro-5H-pyrazolo[5,1-b][1,3]oxazine-3-carboxamide] | 72 | > 25000
15 | O=C(N[C@H]1N=C(c2ccccc2)c2ccccc2NC1=O)c1c(-c2ccc(F)cc2F)nn2c1OCC(CO)C2 (stereo partly drawn) [Example 131, 2-(2,4-Difluorophenyl)-6-(hydroxymethyl)-N-[(3S)-2-oxo-5-phenyl-1,3-dihydro-1,4-benzodiazepin-3-yl]-6,7-dihydro-5H-pyrazolo[5,1-b][1,3]oxazine-3-carboxamide] | 93 | > 25000
16 | O=C(N[C@H]1N=C(c2ccccc2)c2cccc(F)c2NC1=O)c1c(-c2ccccc2F)nn2c1OCC(CN1CCC(F)(F)C1)C2 (stereo partly drawn) [Example 186, 6-[(3,3-Difluoropyrrolidin-1-yl)methyl]-N-[(3S)-9-fluoro-2-oxo-5-phenyl-1,3-dihydro-1,4-benzodiazepin-3-yl]-2-(2-fluorophenyl)-6,7-dihydro-5H-pyrazolo [5,1-b][1,3]oxazine-3-carboxamide] | 59 | > 25000
17 | COC1CN(c2ccc(-c3nn4c(c3C(=O)N[C@H]3N=C(c5ccccc5)c5cccc(F)c5NC3=O)O[C@H](C)CC4)cn2)C1 [Example 144, (5R)-N-[(3S)-9-fluoro-2-oxo-5-phenyl-1,3-dihydro-1,4-benzodiazepin-3-yl]-2-[6-(3-methoxyazetidin-1-yl)pyridin-3-yl]-5-methyl-6,7-dihydro-5H-pyrazolo[5,1-b][1,3]oxazine-3-carboxamide] | 101 | > 25000
18 | CC1CCn2nc(-c3ccc(N4C[C@@H]5C[C@H]4CO5)nc3)c(C(=O)NC3N=C(c4ccccc4)c4cccc(F)c4NC3=O)c2O1 (stereo in doubt) [Example 87, (5S)-5-Methyl-N-[(3R)-9-fluoro-2-oxo-5-phenyl-1,3-dihydro-1,4-benzodiazepin-3-yl]-2-[6-[(1S,4S)-2-oxa-5-azabicyclo[2.2.1]heptan-5-yl]pyridin-3-yl]-6,7-dihydro-5H-pyrazolo[5,1-b][1,3]oxazine-3-carboxamide] | 179 | > 25000
19 | O=C(N[C@H]1N=C(c2ccccc2)c2ccccc2NC1=O)c1c(-c2ccccc2)nn2c1OCCC2 [Example 22, N-[(3S)-2-oxo-5-phenyl-1,3-dihydro-1,4-benzodiazepin-3-yl]-2-phenyl-6,7-dihydro-5H-pyrazolo[5,1-b][1,3]oxazine-3-carboxamide] | 140 | > 25000
20 | C[C@H]1CCn2nc(-c3cnn(CC(F)(F)F)c3)c(C(=O)N[C@H]3N=C(c4ccccc4)c4cccc(F)c4NC3=O)c2O1 [Example 157, (5S)-N-[(3S)-9-fluoro-2-oxo-5-phenyl-1,3-dihydro-1,4-benzodiazepin-3-yl]-5-methyl-2-[1-(2,2,2-trifluoroethyl)pyrazol-4-yl]-6,7-dihydro-5H-pyrazolo[5,1-b][1,3]oxazine-3-carboxamide] | 48 | > 25000
